Experimental data reported in patent US20230192706A1, “BICYCLIC AMINES AS CDK2 INHIBITORS” (Incyte Corporation, priority 2021, published 2023).

Target: T1, CDK2/Cyclin E1 (Homo sapiens, UniProt P24941)
T1 construct: full-length human CDK2 co-expressed as N-terminal GST-tagged protein; GST (N); purchased Carna 04-165; host or cells: baculovirus expression system
Assay: CDK2/Cyclin E1 HTRF enzyme activity assay
Assay type: biochemical
Settings: 1 mM ATP; CDK2/Cyclin E1 0.25 nM; 60 minutes at room temperature
Description: CDK2/Cyclin E1 enzyme activity assays utilize full-length human CDK2 co-expressed as N-terminal GST-tagged protein with FLAG-Cyclin E1 in a baculovirus expression system (Carna Product Number 04-165). Assays were conducted in white 384-well polystyrene plates in a final reaction volume of 8 µL. CDK2/Cyclin E1 (0.25 nM) was incubated with the compounds of the Examples (40 nL serially diluted in DMSO) in the presence of ATP (50 µM or 1 mM) and 50 nM ULight^Tm-labeled eIF4E-binding protein 1 (THR37/46) peptide (PerkinElmer) in assay buffer (containing 50 mM HEPES pH 7.5, 1 mM EGTA, 10 mM MgCl2, 2 mM DTT, 0.05 mg/mL BSA, and 0.01% Tween 20) for 60 minutes at room temperature. The reactions were stopped by the addition of EDTA and Europium-labeled anti-phospho-4E-BP1 antibody (PerkinElmer), for a final concentration of 15 mM and 1.5 nM, respectively. HTRF signals were read after 1 hour at room temperature on a PHERAstar FS plate reader (BMG Labtech). Data was analyzed with IDBS XLFit and GraphPad Prism 5.0 software using a three or four parameter dose response curve to determine IC50 for each compound.

Compound | IC50 [µM]
CC(C)Oc1c(-c2cn[nH]c2)ncc2nc(N[C@H]3CCOC[C@H]3F)nn12 [Example 12, N-((3S,4S)-3-Fluorotetrahydro-2H-pyran-4-yl)-5-isopropoxy-6-(1H-pyrazol-4-yl)-[1,2,4]triazolo[1,5-α] pyrazin-2-amine] | < 0.01
Cc1cc(-c2c(-c3cn[nH]c3)ccn3nc(N[C@H]4CCOC[C@H]4F)nc23)c(F)cc1C#N [Example 2, 5-Fluoro-4-(2-(((3S,4S)-3-fluorotetrahydro-2H-pyran-4-yl)amino)-7-(1H-pyrazol-4-yl)-[1,2,4]triazolo[1,5-a]pyridin-8-yl)-2-methylbenzonitrile] | < 0.01
F[C@@H]1COCC[C@@H]1Nc1nc2cnc(-c3cn[nH]c3)c(N3CCCCC3)n2n1 [Example 13, N-((3S,4S)-3-Fluorotetrahydro-2H-pyran-4-yl)-5-(piperidin-1-yl)-6-(1H-pyrazol-4-yl)-[1,2,4]triazolo[1,5-α]pyrazin-2-amine] | < 0.01
FC(F)C1(Oc2c(-c3cn[nH]c3)ncc3nc(NC4CCOCC4)nn23)CCC1 [Example 11, 5-(1-(Difluoromethyl)cyclobutoxy)-6-(1H-pyrazol-4-yl)-N-(tetrahydro-2H-pyran-4-yl)-[1,2,4] triazolo [1,5-α] pyrazin-2-amine] | < 0.01
FC(F)C1(Oc2c(-c3cn[nH]c3)ncc3nc(N[C@H]4CCOC[C@H]4F)nn23)CCC1 [Example 10, 5-(1-(Difluoromethyl)cyclobutoxy)-N-((3S,4S)-3-fluorotetrahydro-2H-pyran-4-yl)-6-(1H-pyrazol-4-yl)-[1,2,4]triazolo[1,5-α]pyrazin-2-amine] | < 0.01
C[C@H](Oc1c(-c2cn[nH]c2)ncc2nc(N[C@H]3CCOC[C@H]3F)nn12)C(F)(F)F [Example 8, N-((3S,4S)-3-Fluorotetrahydro-2H-pyran-4-yl)-6-(1H-pyrazol-4-yl)-5-(((5)-1,1,1-trifluoropropan-2-yl)oxy)-[1,2,4]triazolo[1,5-α]pyrazin-2-amine] | < 0.01
F[C@@H]1CCN(c2c(-c3cn[nH]c3)ccn3nc(N[C@H]4CCOC[C@H]4F)nc23)C1 [Example 3, 8—((R)—3-Fluoropyrrolidin-1-yl)-N((3S,4S)-3-fluorotetrahydro-2H-pyran-4-yl)-7-(1H-pyrazol-4-yl)-[1,2,4]triazolo[1,5-α]pyridin-2-amine] | < 0.01
CC(C)Oc1c(-c2cn[nH]c2)ccn2nc(N[C@H]3CCOC[C@H]3F)nc12 [Example 5, N-((3S,4S)-3-Fluorotetrahydro-2H-pyran-4-yl)-8-isopropoxy-7-(1H-pyrazol-4-yl)-[1,2,4]triazolo[1,5-α]pyridin-2-amine] | < 0.01
C[C@@H](Oc1c(-c2cn[nH]c2)ncc2nc(N[C@H]3CCOC[C@H]3F)nn12)C(F)(F)F [Example 9, N-((3S,4S)-3-Fluorotetrahydro-2H-pyran-4-yl)-6-(1H-pyrazol-4-yl)-5—(((R)—1,1,1-trifluoropropan-2-yl)oxy)-[1,2,4]triazolo[1,5-α]pyrazin-2-amine] | < 0.01
CC(C)Oc1c(-c2cn[nH]c2)ncn2nc(NC3CCOC(C)C3)nc12 (single isomer, unassigned) [Example 6, 8-Isopropoxy-N-(2-methyltetrahydro-2H-pyran-4-yl)-7-(1H-pyrazol-4-yl)-[1,2,4]triazolo[1,5-c]pyrimidin-2-amine] | < 0.01
Cc1cc(-c2c(-c3cn[nH]c3)ccn3nc(NC4CCOCC4)nc23)ccc1C#N [Example 1, 4-(7-(1H-Pyrazol-4-yl)-2-((tetrahydro-2H-pyran-4-yl)aminoamino)-[1,2,4]triazolo[1,5-a]pyridin-8-yl)-2-methylbenzonitrile] | < 0.01
CC(C)Oc1c(-c2cn[nH]c2)ncn2nc(N[C@H]3CCOC[C@H]3F)nc12 [Example 7, N-((3S, 4S)-3-Fluorotetrahydro-2H-pyran-4-yl)-8-isopropoxy-7-(1H-pyrazol-4-yl)-[1,2,4]triazolo[1,5-c]pyrimidin-2-amine] | < 0.01
F[C@@H]1COCC[C@@H]1Nc1nc2c(N3CCCC(F)(F)C3)c(-c3cn[nH]c3)ccn2n1 [Example 4, 8-(3,3-Difluoropiperidin-1-yl)-N-((3S,4S)-3-fluorotetrahydro-2H-pyran-4-yl)-7-(1H-pyrazol-4-yl)-[1,2,4]triazolo[1,5-α]pyridin-2-amine] | < 0.01
